Measurements taken from patent USRE39682E1, “Farnesyl derivatives and pharmaceutical compositions containing them” (Ramot at Tel Aviv University Ltd., priority 1993, dated 2007).
Like-named read-outs stand apart in the source and are kept apart here.

Tests used:
[1] = target: T1, prenylated protein methyltransferase (PPMTase) (Rattus norvegicus, UniProt Q9WVM4); experiment: Methylation of AFC by PPMTase in rat cerebellar synaptosomal membranes; format: biochemical; details: for IC50: synaptosomal membranes, FIG. 2, read-out: IC50 (concentration resulting in 50% inhibition of AFC methylation)
T1 construct: from tissue; host or cells: rat cerebellum, synaptosomal membranes
Excerpt: As a substrate for methylation served AFC and as the donor of methyl served [methyl-H^3] labelled AdoMet. As a source of the enzyme prenylated protein methyltransferase (PPTMase) served rat cerebellar membranes which are known to be membranes enriched with this enzyme (Ben-Baruch, Biochem. Biophys. Res. Commun., 195, 282-288. (1993)).
(§1) Charles River adult male rats were used for preparation of cerebellar synaptosomal membranes. Cerebella were removed after decapitation and homogenized in 0.32M sucrose containing 50 mM Tris-HCl pH 7.4, 3 mM EDTA, 1 mM EGTA, 5 unit/ml aprotinin and 5 μg/ml pepstatin (buffer A) to yield 10% (w/v) homogenates. Nuclear fractions were obtained by 10 min. 600×g centrifugation and synaptosomal fractions were obtained by 20 mins. 14,500×g centrifugation. Membranes of the various cell types used were prepared in the above buffer A by a 60 min. spin at 100,000×g.
Pellets were resuspended in the homogenization buffer and stored at −70° C. Methylation assays were performed at 37° C. in 50 mM Tris-HCl buffer pH 7.4, using 75-125 μg protein, 25 μM [methyl-^3H]AdoMet ([…] in DMSO) in a total volume of 50 μl. DMSO concentration in all assays was 4%.
(§2) Reactions were terminated after 10 min. by adding 500 μl chloroform methanol (1:1) and a subsequent addition of 250 μl H2O, mixing them and subsequently by phase separation. A portion of 125 μl of the chloroform phase was dried down at 40° C. and 200 μl of 1M NaOH/1% SDS solution were added thereto. The [^3H]methanol thus formed was counted by the vapor phase equilibrium method as described previously (Hakiai et al., Cell Mol. Neurobiol., 11, 415-431, (1991); Lenner et al., Cell Mol. Neurbiol., 12, 333 and 3351, (1992); Ben-Baruch et al., Biochem. Biophy. Res. Commun., 195, 282-288, (1993)). Typical background counts (i.e. counts of methylation with no AFC added) were 50-100 cpm while typical methylation counts with AFC as a substrate yielded 500 to 6000 cpm. Assays were performed in triplicate and background counts subtracted. Methylation of endogenous substrates, in intact cells, and [α-^32P] GTP-blot overlay assays and gel electrophoreses were performed as detailed previously (Hakiai et al., supra (1991); Lenner et al., supra (1993)).

untransformed rat1 cells = experiment: Growth of untransformed rat1 cells (cell counting); format: cell-based, rat; details: for effect on the growth of normal rat1 cells: 0.1-50 μM, 3, 7 or 10 days, FIG. 7
Experimental: HEC1A, V-raf-3T3 and SV40-CHE cells were grown in Dulbecco's modified Eagle medium (DMEM) containing 10% fetal calf serum (FCS), 4 mM L-glutamine, 10 μg/ml streptomycin and 10 U/ml penicillin. Rat1 and -EJ cells were grown in the same medium except that it was supplemented with 12.5 U/ml nyostatin. RB-22 cells were grown in modified DMEM (1 mM sodium pyruvate, 20 mM sodium bicarbonate)/10% FCS containing 4 mM L-glutamine, […] streptomycin, 10 U/ml penicillin. PC-12 cells were grown in DMEM 15% FCS/5% horse serum and the above noted antibiotics.
HEC1A cells were plated in 24 well plates at a density of 5×10^3 cells per well and fed with 1 ml of medium. The cells were grown at 37° C. in a humidified atmosphere of 95%/5% air/CO2. All other cell types employed were plated in 24 well plates at a density of 2×10^3 cells per well and fed with the appropriate medium.
Cultures were treated with farnesyl derivatives or with solvent either 3 hrs following plating or one day after plating as indicated. The drugs were prepared in DMSO to yield the final desired drug (0.1-50 μM) concentration and 0.1% DMSO. Control cultures received 0.1% DMSO only. Cultures were fed on days 6, 7 and 9 of the experiment with the drugs or with solvent-containing media.
[…] For counting, cells were detached from plates with trypsin/EDTA, and collected by a low speed spin in the presence of DMEM/10% FCS. The pelleted cells were resuspended in a small volume of DMEM/10% FCS and counted under the microscope. Viability of cells was estimated by staining with (3-(4,5-dimethylthiosol-2-yl)-2,5-diphenyltetrazolium bromide (MTT) and microscopic examination of the stained and unstained cells, or spectrophotometric estimation (OD490, 590) of the total stain in each well. Non viable cells were estimated by the trypan blue exclusion method.
Cells were plated at a density 2×10^3/well and received either solvent or drugs one day later. Following 3, 7, or 10 days of the drugs-treatment as described above, cells were collected and the number of cells in each well was estimated by direct counting. […]

PPMTase [2] = target: T2, PPMTase (Mus musculus, UniProt Q9EQK7); experiment: PPMTase activity (AFC methylation) in membranes of B16F10 melanoma cells; format: biochemical; details: for PPMTase activity: with inhibitor
T2 construct: PPMTase activity in membranes obtained from four different cell lines as determined by methylation of AFC; endogenous in cells; host or cells: B16F10 melanoma cell membranes
Experimental: as §1
(§3) Pellets were resuspended in the homogenization buffer and stored at −70° C. Methylation assays were performed at 37° C. in 50 mM Tris-HCl buffer pH 7.4, using 75-125 μg protein, 25 μM [methyl-^3H]AdoMet ([…]) as a methyl donor and 150 μM AFC as a methylation substrate (prepared as a stock solution in DMSO) in a total volume of 50 μl. DMSO concentration in all assays was 4%.
as §2
(§4) The B16F10 melanoma cells were grown in RPMI 1640/10% fetal calf serum, 2 mM glutamine and antibiotics as for the HEC1A cells, at the density of 1×10^4 cells/well. All four types of cells were used for determining the PPMTase activity using AFC as the substrate as described above for synaptosomal membrane preparation. Usually 150 μg membranal proteins were used in the assay for a 10 min. incubation time.

PPMTase [3] = target: T3, PPMTase (Rattus norvegicus, UniProt Q9WVM4); experiment: PPMTase activity (AFC methylation) in membranes of ras-transformed rat1 cells; format: biochemical; details: ras-transformed rat fibroblast membranes; for PPMTase activity: with inhibitor
T3 construct: PPMTase activity in membranes obtained from four different cell lines as determined by methylation of AFC; endogenous in cells; host or cells: ras-transformed rat1 (EJ) cell membranes
Experimental: as §1, §3, §2, §4

[4] = Table II, given as range, read-out: Ki
[5] = from FIG. 2 curves, 100 μM AFC, read-out: inhibition constant (Ki)

T3 sequence (Q9WVM4 whole entry): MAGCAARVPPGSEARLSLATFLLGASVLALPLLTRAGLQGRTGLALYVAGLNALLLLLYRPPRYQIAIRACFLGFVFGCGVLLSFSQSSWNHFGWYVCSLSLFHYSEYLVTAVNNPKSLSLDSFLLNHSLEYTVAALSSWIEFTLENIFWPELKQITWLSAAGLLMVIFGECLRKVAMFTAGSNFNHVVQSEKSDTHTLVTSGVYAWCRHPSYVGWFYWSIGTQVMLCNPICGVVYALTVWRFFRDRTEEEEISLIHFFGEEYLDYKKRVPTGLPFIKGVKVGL
T1 sequence (Q9WVM4 whole entry): as above
T2 sequence (Q9EQK7 whole entry): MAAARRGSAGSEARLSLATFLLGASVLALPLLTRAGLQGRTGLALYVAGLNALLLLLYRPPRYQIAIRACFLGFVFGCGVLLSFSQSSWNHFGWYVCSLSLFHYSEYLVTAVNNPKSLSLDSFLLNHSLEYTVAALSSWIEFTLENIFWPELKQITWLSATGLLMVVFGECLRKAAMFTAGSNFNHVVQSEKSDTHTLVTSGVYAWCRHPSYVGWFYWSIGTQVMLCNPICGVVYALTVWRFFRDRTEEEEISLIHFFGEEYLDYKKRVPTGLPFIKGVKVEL

Compound | [3H-methyl]ester formed ([1]; 100 μM AFC + 200 μM inhibitor) [cpm/assay] | IC50 ([1]; 100 μM AFC) [µM] | Ki [1, 4] [µM] | Ki [1, 5] [µM] | effect on the growth of normal rat1 cells (untransformed rat1 cells) | % Inhibition (PPMTase [2]) [%] | PPMTase activity (PPMTase [2]) [pmol/min/mg protein] | % Inhibition (PPMTase [3]) [%] | PPMTase activity (PPMTase [3]) [pmol/min/mg protein] | serves as substrate for PPMTase methylation [1] | [3H-methyl]ester formed ([1]; 200 μM of the substance alone as substrate) [cpm/assay] | Number of cells (% of control) (untransformed rat1 cells; Ras1, 25 μM, day 5)
CC(C)=CCC/C(C)=C/CC/C(C)=C/CSCC(=O)O [FTA, S-trans, trans-farnesylthioacetic acid, reference compound] | 320 ± 50 | 23 | 5.7 to 10.5 | 4 | neither FTA nor FTS has any significant effect | 38 | 1.3 | 72 | 1.9 | – | – | –
CC(C)=CCC/C(C)=C/CC/C(C)=C/CSc1ccccc1C(=O)O [FTS, (3,7,11-trimethyl-dodeca-2,6,10-trienyl)-2-thiobenzoic acid] | 280 ± 30 | 10 | 1.5 to 4.2 | 1.5 | neither FTA nor FTS has any significant effect | 50 | 1.7 | 73 | 1.8 | does not serve as a substrate | 30 ± 10 | 97 ± 10 % of control
